Laboratory results published in patent US20110214196A1, “DEVELOPMENT OF HERBICIDE-RESISTANT GRASS SPECIES” (University of Georgia Research Foundation, priority 2008, published 2011).

Legend:
[1] = test system: Large crabgrass (Digitaria sanguinalis) F2; experiment: Large crabgrass dose response study, F2 from self-pollinated surviving plants; assay type: in vivo
Experimental: (§1) Plants were grown from seed collected from a turfgrass sod farm near where sethoxydim had been continuously used for twelve years. Seeds were planted in 250 mL styrofoam cups with a potting mixture of pure sand in a glasshouse with supplemental lighting (300 uE/m2/s) and 30/25 temperature. Plants were watered once daily and fertilized once a week. Large crabgrass plants were treated with herbicides when 3-5 cm tall in a dose response study. Four herbicides (sethoxydim, fluazifop, clethodim, and pinoxaden) were applied at […]. Plant injury was observed 7 and 14 DAT. The experimental design consisted of a randomized complete block design with three replications. The experiment was replicated in time.
In response to all four herbicides, the plants initially illutrated typical ACCase symptomology, but recovered in 7-14 days after treatment (DAT). […] Seeds from self-pollinated surviving large crabgrass plants were collected and analyzed using the same dose response design as state before. […] The ED50 was approximately 10 times greater for the resistant (R) population than that for the wild type (S) population.

[2] = test system: Large crabgrass (Digitaria sanguinalis); experiment: Large crabgrass dose response study, plants from sod farm seed; assay type: in vivo; details: for resistance or susceptibility of this population of large crabgrass: conclusion from ED50 values; for effective dose required to cause 50% injury (ED50): large crabgrass grown from sod farm seed, treated when 3-5 cm tall
Experimental: as §1

CCSC(C)CC1CC(=O)C(/C(CC)=N/OC/C=C/Cl)=C(O)C1 (racemic) [clethodim, (E,E)-(±)-2-[1-[[(3-chloro-2-propenyl)oxy]imino]propyl]-5-[2-(ethylthio)propyl]-3-hydroxy-2-cyclohexen-1-one]
effective dose required to cause 50% injury (ED50) [1]: 28±22 g ai/ha | resistance or susceptibility of this population of large crabgrass [2]: susceptible | effective dose required to cause 50% injury (ED50) [2]: 51±4 g ai/ha

CCc1cc(C)cc(CC)c1-c1c(OC(=O)C(C)(C)C)n2n(c1=O)CCOCC2 [pinoxaden]
effective dose required to cause 50% injury (ED50) [1]: 131±44 g ai/ha | resistance or susceptibility of this population of large crabgrass [2]: resistant | effective dose required to cause 50% injury (ED50) [2]: 168±29 g ai/ha
